From patent publication US9029414B2, “Triterpenoid compounds and methods of use thereof” (Biotechnology Research Corporation, priority 2008, dated 2015)

Assays:
EP2 receptor [1] = molecular target: T1, EP2 receptor (Homo sapiens, UniProt P43116); experiment: Radioligand competition binding assay, EP2; settings: EP2, target PGE2; compound at 10 μM in duplicate; read-out: % inhibition of control specific binding
Procedure: (§1) DA001 was further evaluated against 32 receptor binding assays. Radioligand competition assays were conducted whereby DA001 was tested at one concentration (10 uM) in duplicate. […] It could compete with the radioligand [^3H] PGE2 binding at the EP1 and EP4 receptors, and weakly competed with the EP2 and FP receptors.
(§2) To determine the targets of DA compounds, the compound was assessed in binding assays for the family of prostanoid receptors. Both compounds were tested at a single concentration (10 μM) in duplicate. DA001 and DA021 inhibit the ligand binding of prostaglandin E2 receptors EP1, EP2 and EP4 and moderately to prostaglandin (PGF) to its receptor (FP), but not prostaglandin I (PGI2), thromoboxane A and prostaglandin D2 to their receptors.

IP receptor = IP receptor (Homo sapiens, UniProt P43119); experiment: Radioligand competition binding assay, IP; settings: target PGI, compound at 10 μM in duplicate, read-out: % inhibition of control specific binding
Procedure: as §1, §2

TP receptor = TP receptor (Homo sapiens, UniProt P21731); experiment: Radioligand competition binding assay, TP; settings: target Thromoboxanes A, compound at 10 μM in duplicate, read-out: % inhibition of control specific binding
Procedure: as §1, §2

[2] = tested on: MOG-induced IFN-γ in primary splenocytes; experiment: IFN-γ Quantikine ELISA in primary splenocytes of EAE mice; type: cell-based; settings: for Reduction in IFN-γ, % Reduction: splenocytes of EAE mice dosed 100 mg/kg orally daily vs MOG + Vehicle; for IFN-γ, Average / level of IFN-γ: splenocytes of EAE mice dosed 100 mg/kg orally daily, exogenous MOG; for decrease of IFN-γ in response to exogenous compound: splenocytes of compound-treated EAE mice (100 mg/kg); for decrease of IFN-γ in response to exogenous compound / reduction in the amount of MOG-induced IFN-γ: exogenous compound 30 μM, MOG 25 μg/mL; for reduction in the amount of MOG-induced IFN-γ: splenocytes of vehicle-treated EAE mice, 48 hrs
Procedure: On day 21, EAE mice were sacrificed by cervical dislocation and spleens were removed aseptically. The removed spleens were then cut with sterilized scissors and strained through […] mesh (BD Bioscience) with a plunger of 5 mL syringe (BD Bioscience) in 9 mL of RPMI 1640 (Invitrogen) with 100 U/mL penicillin and 100 μg/mL streptomycin (Sigma). The cell mixture was then added to 9 mL of Lympholyte (Cedarlane Laboratories) for gradient separation of splenocytes from red bloods cells by centrifugation at 1500 g for 20 min. After the centrifugation, the lympholyte layer containing splenocytes were carefully removed and washed with 10 mL of RPMI 1640 at 800 g for 10 min for three times. The isolated splenocytes were seeded onto different plate format and cultured with RPMI 1640 medium (Invitrogen) supplement with 10% heat inactivated fetal bovine serum (Invitrogen) and 100 U/mL penicillin and 100 μg/mL streptomycin at 37° C. CO2 incubator.
Splenocytes from EAE mice were cultured at the density of 1×10^6 cells in 12-well plates (Falcon) in the absence or presence of the MOG peptide (25 μg/mL) (Hooke Laboratories), DA001 and DA021 (30 μM) with RPMI 1640 medium (Invitrogen) supplement with 10% heat inactivated fetal bovine serum (Invitrogen) and 100 U/mL penicillin and 100 μg/mL streptomycin (Sigma) for 48 h. After 48 h, the supernatants were collected by pelleting the cells at 300 g for 10 min at 4° C. 50 μL of the each sample was added to the microtiter plate provided by the manufacturer of the Quantikine ELISA assay kit (R and D systems). Additional 50 μL of assay diluents buffer was added and incubated at room temperature for 2 h. After the incubation, the supernatants were discarded and the cells were washed with wash buffer. 100 μL of conjugate was added to the cells and the plate was again incubated at room temperature for 2 h. After another washing, 100 μL of substrate solution was added followed by 30 min incubation at room temperature. Subsequently, 100 μL of stop solution was added to each well and the plate was read in 450 nm wavelength on a microplate reader (Dynex Revelation 2.2).
Cytokines are believed to be one of the key signaling molecules in disease progression of EAE. Autoimmune response observed in the EAE model is believed to be mediated via the Th1 pathway, and interferon-gamma (IFN-γ) is the hallmark cytokine of the Th1 immune response. Therefore, it is critical to examine the efficacy of the compounds in modulating the levels of cytokines in EAE mice. To this end, splenocytes isolated from the spleens of EAE mice were cultured and treated with exogenous MOG peptide and the amount of IFN-γ was measured in response to exogenous DA001 and DA021 (30 μM) treatments using ELISA.
(§3) The cells were cultured in RPMI 1640 medium supplement with 10% heat inactivated fetal bovine serum and penicillin/streptomycin, in the absence or presence of MOG (25 μg/mL, Ex) with or without DA001 or DA021 (30 μM, Ex). Supernatants were collected after 48 hrs and IFN-γ Quantikine ELISA assay kit (R and D systems) was used according to the manufacturer's protocol. The amount of IFN-γ was calculated based on the standard curve established during the assay. The graph presented is the composite of two separate trials with duplicate samples in each trial. ***=p≦0.0001, **=p≦0.001, *=p≦0.01.
as §3, with “Cells” for “The cells”, “μg/mL)” for “μg/mL, Ex)”, “DA001” for “DA001 or DA021”, “μM).” for “μM, Ex).”, “***=p≦0.0001. […]” for “***=p≦0.0001, **=p≦0.001, *=p≦0.01.”

EP2 receptor [3] = molecular target: T1, EP2 receptor; experiment: Cellular receptor functional assay (cAMP), EP2; type: cell-based; set-up: expressed in transfected cells; settings: for Agonist effect, cAMP measurement / Antagonist effect, cAMP measurement: EP2 receptor; for Antagonist effect, cAMP measurement: in presence of PGE2
Procedure: FIG. 13. […] A: Cellular functional assay for EP2; B: Cellular functional assay for […].
To determine whether the inhibitory effect of DA001 on the ligand binding to EP receptors results from agonist or antagonist activity, DA001 was evaluated at a single concentration (10 μM) on cellular-specific receptor functional assays. Upon ligand binding, the EP receptors are activated which leads to an increase in intracellular cyclic AMP.
DA001 was evaluated at 6 concentrations in cellular assays assessing receptor function. Upon ligand binding, the EP2 and EP4 receptor is activated which leads to an increase in intracellular cyclic AMP.
DA021 inhibits PGE2 ligand binding to EP1, EP2 and EP4 receptors. To determine whether the inhibitory effect is due to agonist or antagonist activity, DA021 was evaluated and compared at 1 concentration (30 uM) in cellular assays assessing receptor function. Upon ligand binding, the EP receptors are activated which leads to an increase in intracellular cyclic AMP.

T1 sequence (P43116 whole entry): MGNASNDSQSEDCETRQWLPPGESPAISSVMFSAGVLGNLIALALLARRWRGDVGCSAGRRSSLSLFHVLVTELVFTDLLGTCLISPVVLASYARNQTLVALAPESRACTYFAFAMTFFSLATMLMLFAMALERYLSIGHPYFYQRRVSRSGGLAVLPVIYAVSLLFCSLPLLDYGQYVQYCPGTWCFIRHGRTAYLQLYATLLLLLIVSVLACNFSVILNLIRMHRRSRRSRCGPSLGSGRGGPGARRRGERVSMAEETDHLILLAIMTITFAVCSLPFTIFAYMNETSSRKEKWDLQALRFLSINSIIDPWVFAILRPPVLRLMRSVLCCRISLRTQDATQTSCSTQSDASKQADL
Chain of IP receptor (P43119 whole entry): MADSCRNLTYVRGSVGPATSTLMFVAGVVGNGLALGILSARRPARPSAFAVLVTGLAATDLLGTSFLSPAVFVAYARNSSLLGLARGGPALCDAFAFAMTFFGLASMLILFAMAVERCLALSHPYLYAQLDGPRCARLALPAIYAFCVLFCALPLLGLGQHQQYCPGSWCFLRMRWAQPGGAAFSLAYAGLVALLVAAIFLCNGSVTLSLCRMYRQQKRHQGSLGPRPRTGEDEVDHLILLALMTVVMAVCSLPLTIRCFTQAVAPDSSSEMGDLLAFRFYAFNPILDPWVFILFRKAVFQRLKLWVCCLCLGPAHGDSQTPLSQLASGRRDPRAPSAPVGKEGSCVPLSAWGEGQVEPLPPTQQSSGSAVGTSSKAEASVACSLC
Chain of TP receptor (P21731 whole entry): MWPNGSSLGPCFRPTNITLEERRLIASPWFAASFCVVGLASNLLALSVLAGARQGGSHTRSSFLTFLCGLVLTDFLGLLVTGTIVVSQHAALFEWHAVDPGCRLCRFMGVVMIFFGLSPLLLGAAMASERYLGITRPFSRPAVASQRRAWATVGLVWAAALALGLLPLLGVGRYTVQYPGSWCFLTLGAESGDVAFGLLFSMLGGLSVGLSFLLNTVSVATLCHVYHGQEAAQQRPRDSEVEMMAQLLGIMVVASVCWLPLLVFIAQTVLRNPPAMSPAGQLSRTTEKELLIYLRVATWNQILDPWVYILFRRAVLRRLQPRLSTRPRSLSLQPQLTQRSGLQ

Row | SMILES | inhibition at 10 µM (EP2 receptor [1]) | inhibition at 10 µM (IP receptor) | inhibition at 10 µM (TP receptor) | Reduction in IFN-γ, % Reduction [2] | IFN-γ, Average [2] | level of IFN-γ [2] | decrease of IFN-γ in response to exogenous compound [2] | reduction in the amount of MOG-induced IFN-γ [2] | Agonist effect, cAMP measurement (EP2 receptor [3]; 10 μM) | Antagonist effect, cAMP measurement (EP2 receptor [3]; 10 μM) | IC50 (EP2 receptor [3]; inhibition of PGE2-induced cAMP increase, 6 concentrations, read-out: IC50, antagonist effect) | Agonist effect, cAMP measurement (EP2 receptor [3]; 30 uM) | Antagonist effect, cAMP measurement (EP2 receptor [3]; 30 uM)
1 | C=C(C)[C@@H]1CC[C@]2(C(=O)O)CC[C@]3(C)C(CC[C@@H]4[C@@]5(C)CC[C@H](O[C@@H]6OC[C@H](O)[C@H](O)[C@H]6O[C@@H]6O[C@@H](C)[C@H](O)[C@@H](O)[C@H]6O)[C@@](C)(CO)[C@@H]5CC[C@]43C)[C@@H]12 (stereo partly drawn) [DA001, 3-O-[α-L-rhamnopyranosyl-(1→2)-α-L-arabinopyranosyl]-3,23-dihydroxy-20(29)-lupen-28-oic acid] | 31% | 0% | 17% | 83.1% | 105.7 ± 5.1 ρg/mL | 105 pg/mL | 91% | 71% | −0.8% | 2.2% | 36 µM | – | –
2 | C=C(C)[C@@H]1CC[C@]2(/C=N/O)CC[C@]3(C)C(CCC4[C@@]5(C)CCC(=O)[C@@](C)(CO)[C@@H]5CC[C@]43C)C12 (stereo partly drawn) [DA021] | 42% | 9% | 17% | 78.3% | 135.3 ± 12.3 ρg/mL | 135 pg/mL | 78% | 62% | – | – | – | −3 | 4
